Patent US20120172438A1, “GLYCYRRHETINIC ACID ESTER DERIVATIVE SYNTHESIS METHOD AND DEOXOGLYCYRRHETINIC ACID ESTER COMPOUND” (priority 2009, published 2012)
Marks after values point to notes of the source that are not given here.

How the values were obtained:
[1] = test system: acetaminophen induced liver injury; test: Acetaminophen induced liver injury in mice; assay type: in vivo; settings: for ALT / AST: 10 days
Method: Ethyl 11-deoxy-18α-glycyrrhetinate: provided by traditional Chinese medicine laboratory, R&D center of Jiangsu Chia Tai Tianqing Pharmaceutical Co., Ltd. Bifendate pills: produced by Beijing Union Pharmaceutical factory. Daily dosage of human is 45 mg, used as the positive control medicine. Acetaminophen: produced by Jinzhou biochemical pharmaceutical factory. All medicines were prepared to desired concentrations with physiological saline according to the requirement of experiment. AST, ALT Kit: product of Nanjing Jiancheng bioengineering research institute.
60 mice were randomly divided into 6 groups: the normal control group, Bifendate group (positive medicine group), model control group, various doses of ethyl 11-deoxy-18α-glycyrrhetinate groups (240, 120, 60 mg/kg). After the animals were adaptively fed for 3 days, animals in each group were administered the medicines by gastric infusion for 10 days (one time/day). Animals in the normal control group and model group were administered 0.2 ml/mouse of physiological saline. 6 hours after the last administration, animals in each group, except the animals in normal control group, were intraperitoneally injected 400 mg kg-1 acetaminophen. After 12 hours, blood was taken by orbital bleeding. Activities of alanine aminotransferase (ALT), aspartate aminotransferase (AST) were measured. And T test of groups was performed, see table 7;

[2] = test system: TAA induced acute liver injury; test: TAA induced acute liver injury mouse model; assay type: in vivo, ICR male mice; design: Average grade of hepatocyte necrosis: scale not given here; settings: for Grade of hepatocyte necrosis 0 (number of mice) / Grade of hepatocyte necrosis 1 (number of mice) / Grade of hepatocyte necrosis 2 (number of mice) / Grade of hepatocyte necrosis 3 (number of mice) / Grade of hepatocyte necrosis 4 (number of mice): N=10
Method: 50 ICR male mice were randomly divided into 5 groups of 10 mice in each group: the model group, diammonium glycyrrhizinate group (240 mg/kg), high dose of ethyl 11-deoxy-18α-glycyrrhetinate group (240 mg/kg), middle dose of ethyl 11-deoxy-18α-glycyrrhetinate group (120 mg/kg), and low dose of ethyl 11-deoxy-18α-glycyrrhetinate group (60 mg/kg). The mice in model group were administered equal amount of 0.5% CMC-Na by IG.

[3] = test system: BCG + LPS induced liver injury; test: BCG+LPS induced liver injury in mice; assay type: in vivo, Kunming mice; settings: for ALT / AST: 7 days
[4] = test system: carrageenan-induced rat paw edema; test: Carrageenan-induced rat paw swelling; assay type: in vivo, male SD rats
Method: Rat paw edema was induced by injecting carrageenan, and we observed the swelling to evaluate the anti-inflammatory effect. Wherein:
• Animals: male SD rats, 150-180 g; • Inflammatory Agent: carrageenan; • Test Medicine: ethyl 11-deoxy-18α-glycyrrhetinate was dissolved in 1% CMC-Na to get the desired concentration; • Positive Control Medicine: indomethacin was dissolved in 1% CMC-Na to get the desired concentration;
50 rats were randomly divided into 5 groups of 10 rats in each group: the model group, positive control group (administering indomethacin 10 mg/kg), various doses of the test medicine groups (30, 60, 120 mg/kg). The animals in each group were administered continuously for 3 days. Before the last administration, the volumes of the left hind feet of the rats were measured by micropipette method. Then the animals were administered the test medicines or CMC-Na by gastric infusion. 1 hour later, freshly prepared carrageenan was injected subcutaneously into left hind feet of the rats according to the dosage of 0.05 ml/paw by using a 0.25 ml syringe and NO. 4 needle. The volume of left hind feet of the rats was measured by the method mentioned above at time points of 1, 3, 4, 5 and 7 hours after administration, each point 2 times, and the average values were calculated. The difference of these values between before and after inflammation was called swelling degree.
Data was presented as x±s. T test of the average of two samples was used to compare the experimental data of each group. P<0.05 or P<0.01 was regarded to be statistically significant.

[5] = test system: D-Galn induced acute liver injury; test: D-Galn induced acute liver injury mouse model; assay type: in vivo, ICR male mice
Method: 1. Comparison of therapeutic effects of ethyl 11-deoxy-18α-glycyrrhetinate and compound glycyrrhizin injection on ICR male mouse models of the D-Galn induced acute liver injury
Methods: 60 ICR male mice were randomly divided into 6 groups of 10 mice in each group: the model group, compound glycyrrhizin injection group (60 mg/kg), compound glycyrrhizin gastric infusion group (240 mg /kg), high dose of ethyl 11-deoxy-18α-glycyrrhetinate group (240 mg/kg), middle dose of ethyl 11-deoxy-18α-glycyrrhetinate group (120 mg/kg), low dose of ethyl 11-deoxy-18α-glycyrrhetinate group (60 mg/kg). […] The mice in model group were administered equal amount of 0.5% CMC-Na by gastric infusion.

[6] = Table 1 experiment, 60 mg/kg IG, daily for 6 days
[7] = Table 1 experiment, 120 mg/kg IG, daily for 6 days
[8] = Table 1 experiment, 240 mg/kg IG, daily for 6 days
[9] = Table 2 experiment, 60 mg/kg IG, 7 days
[10] = Table 2 experiment, 120 mg/kg IG, 7 days
[11] = Table 2 experiment, 240 mg/kg IG, 7 days

CCOC(=O)C1(C)CCC2(C)CCC3(C)C(=CCC4C5(C)CCC(O)C(C)(C)C5CCC43C)C2C1 (stereo not drawn) [Ethyl 11-deoxy-18α-glycyrrhetinate, ethyl 11-deoxy-18α-glycyrrhetinate]
ALT ([1]; 60 mg/kg gastric infusion): 172.0 ± 39.8 U/L
AST ([1]; 60 mg/kg gastric infusion): 203.5 ± 55.4 U/L
ALT ([1]; 120 mg/kg gastric infusion): 133.3 ± 28.7 U/L
AST ([1]; 120 mg/kg gastric infusion): 158.1 ± 46.9 U/L
ALT ([1]; 240 mg/kg gastric infusion): 119.4 ± 15.2 U/L
AST ([1]; 240 mg/kg gastric infusion): 122.3 ± 28.0 U/L
Reduction of AST, ALT and protection against hepatocyte injury (in words) ([1]; mouse, in vivo): can reduce AST, ALT, and effectively protect against the acetaminophen induced hepatocyte injury
ALT ([2]; 60 mg/kg IG): 1177 ± 701 U/ml
ALT Inhibition % ([2]; 60 mg/kg IG): 48%
AST ([2]; 60 mg/kg IG): 940 ± 582 U/ml
AST Inhibition % ([2]; 60 mg/kg IG): 45%
Average grade of hepatocyte necrosis ([2]; 60 mg/kg IG): 1.4*
Grade of hepatocyte necrosis 0 (number of mice) ([2]; 60 mg/kg IG): 1
Grade of hepatocyte necrosis 1 (number of mice) ([2]; 60 mg/kg IG): 4
Grade of hepatocyte necrosis 2 (number of mice) ([2]; 60 mg/kg IG): 5
Grade of hepatocyte necrosis 3 (number of mice) ([2]; 60 mg/kg IG): 0
Grade of hepatocyte necrosis 4 (number of mice) ([2]; 60 mg/kg IG): 0
ALT ([2]; 120 mg/kg IG): 1117 ± 707 U/ml
ALT Inhibition % ([2]; 120 mg/kg IG): 51%
AST ([2]; 120 mg/kg IG): 823 ± 530 U/ml
AST Inhibition % ([2]; 120 mg/kg IG): 52%
Average grade of hepatocyte necrosis ([2]; 120 mg/kg IG): 1.3**
Grade of hepatocyte necrosis 0 (number of mice) ([2]; 120 mg/kg IG): 1
Grade of hepatocyte necrosis 1 (number of mice) ([2]; 120 mg/kg IG): 5
Grade of hepatocyte necrosis 2 (number of mice) ([2]; 120 mg/kg IG): 4
Grade of hepatocyte necrosis 3 (number of mice) ([2]; 120 mg/kg IG): 0
Grade of hepatocyte necrosis 4 (number of mice) ([2]; 120 mg/kg IG): 0
ALT ([2]; 240 mg/kg IG): 992 ± 558 U/ml
ALT Inhibition % ([2]; 240 mg/kg IG): 56%
AST ([2]; 240 mg/kg IG): 738 ± 258 U/ml
AST Inhibition % ([2]; 240 mg/kg IG): 57%
Average grade of hepatocyte necrosis ([2]; 240 mg/kg IG): 1.2**
Grade of hepatocyte necrosis 0 (number of mice) ([2]; 240 mg/kg IG): 1
Grade of hepatocyte necrosis 1 (number of mice) ([2]; 240 mg/kg IG): 6
Grade of hepatocyte necrosis 2 (number of mice) ([2]; 240 mg/kg IG): 3
Grade of hepatocyte necrosis 3 (number of mice) ([2]; 240 mg/kg IG): 0
Grade of hepatocyte necrosis 4 (number of mice) ([2]; 240 mg/kg IG): 0
ALT ([3]; 60 mg/kg gastric infusion): 105.3 ± 18.61 U/L
AST ([3]; 60 mg/kg gastric infusion): 227.2 ± 59.7 U/L
ALT ([3]; 120 mg/kg gastric infusion): 108.7 ± 20.0 U/L
AST ([3]; 120 mg/kg gastric infusion): 190.1 ± 43.3 U/L
ALT ([3]; 240 mg/kg gastric infusion): 89.4 ± 13.2 U/L
AST ([3]; 240 mg/kg gastric infusion): 169.3 ± 38.4 U/L
Protection of liver and reduction of enzyme activity (in words) ([3]; mouse, in vivo): has good activity of protecting liver and reducing enzyme activity
Swelling degree of the feet after inflammation ([4]; 30 mg/kg gastric infusion, 1 h): 0.20 ± 0.10 mL
Swelling degree of the feet after inflammation ([4]; 30 mg/kg gastric infusion, 3 h): 0.27 ± 0.10 mL
Swelling degree of the feet after inflammation ([4]; 30 mg/kg gastric infusion, 4 h): 0.33 ± 0.11 mL
Swelling degree of the feet after inflammation ([4]; 30 mg/kg gastric infusion, 5 h): 0.39 ± 0.11 mL
Swelling degree of the feet after inflammation ([4]; 30 mg/kg gastric infusion, 7 h): 0.27 ± 0.12 mL
Swelling degree of the feet after inflammation ([4]; 60 mg/kg gastric infusion, 1 h): 0.17 ± 0.08 mL
Swelling degree of the feet after inflammation ([4]; 60 mg/kg gastric infusion, 3 h): 0.29 ± 0.15 mL
Swelling degree of the feet after inflammation ([4]; 60 mg/kg gastric infusion, 4 h): 0.37 ± 0.11 mL
Swelling degree of the feet after inflammation ([4]; 60 mg/kg gastric infusion, 5 h): 0.37 ± 0.07 mL
Swelling degree of the feet after inflammation ([4]; 60 mg/kg gastric infusion, 7 h): 0.29 ± 0.09 mL
Swelling degree of the feet after inflammation ([4]; 120 mg/kg gastric infusion, 1 h): 0.20 ± 0.05 mL
Swelling degree of the feet after inflammation ([4]; 120 mg/kg gastric infusion, 3 h): 0.32 ± 0.11 mL
Swelling degree of the feet after inflammation ([4]; 120 mg/kg gastric infusion, 4 h): 0.34 ± 0.09 mL
Swelling degree of the feet after inflammation ([4]; 120 mg/kg gastric infusion, 5 h): 0.42 ± 0.12 mL
Swelling degree of the feet after inflammation ([4]; 120 mg/kg gastric infusion, 7 h): 0.28 ± 0.09 mL
Inhibition of carrageenan-induced swelling of the rat feet (in words) ([4]; 30, 60, 120 mg/kg): began to inhibit the swelling of the rat feet induced by carrageenan after 4 hours
ALT [5, 6]: 833 ± 564 U/ml
ALT Inhibition % [5, 6]: 60%
AST [5, 6]: 777 ± 533 U/ml
AST Inhibition % [5, 6]: 60%
ALT [5, 7]: 474 ± 345 U/ml
ALT Inhibition % [5, 7]: 77%
AST [5, 7]: 414 ± 340 U/ml
AST Inhibition % [5, 7]: 79%
ALT [5, 8]: 311 ± 256 U/ml
ALT Inhibition % [5, 8]: 85%
AST [5, 8]: 317 ± 214 U/ml
AST Inhibition % [5, 8]: 84%
ALT [5, 9]: 767 ± 739 U/ml
ALT Inhibition % [5, 9]: 61%
AST [5, 9]: 353 ± 256 U/ml
AST Inhibition % [5, 9]: 69%
ALT [5, 10]: 452 ± 432 U/ml
ALT Inhibition % [5, 10]: 77%
AST [5, 10]: 292 ± 215 U/ml
AST Inhibition % [5, 10]: 74%
ALT [5, 11]: 372 ± 440 U/ml
ALT Inhibition % [5, 11]: 81%
AST [5, 11]: 266 ± 192 U/ml
AST Inhibition % [5, 11]: 77%

COc1ccc2c(c1)c(CC(=O)O)c(C)n2C(=O)c1ccc(Cl)cc1 [Indomethacin, indomethacin, reference compound]
Swelling degree of the feet after inflammation ([4]; 10 mg/kg gastric infusion, 1 h): 0.13 ± 0.05 mL
Swelling degree of the feet after inflammation ([4]; 10 mg/kg gastric infusion, 3 h): 0.17 ± 0.07 mL
Swelling degree of the feet after inflammation ([4]; 10 mg/kg gastric infusion, 4 h): 0.24 ± 0.09 mL
Swelling degree of the feet after inflammation ([4]; 10 mg/kg gastric infusion, 5 h): 0.22 ± 0.06 mL
Swelling degree of the feet after inflammation ([4]; 10 mg/kg gastric infusion, 7 h): 0.16 ± 0.05 mL
